Test results taken from patent US9777015B2, “Useful thiophene derivatives in the treatment of diabetes” (METABRAIN RESEARCH, priority 2012, dated 2017).
Structures can show the parent of a compound that is named as a salt. Where two headings read alike, the source gives them in different places.

Test system: hepatocytes isolated from Wistar rat liver
Assay: Test of inhibition of hepatic production of glucose (isolated hepatocytes, 3 h or 20 h incubation)
Format: cell-based
Conditions: for activity at 50 µM / activity at 100 µM: Rattus norvegicus, Hepatocyte; for activity at 50 µM: read-out: HGP % of ctrl @ 50 μM; for activity at 100 µM: read-out: HGP % of ctrl @ 100 μM; for inhibition of hepatic production of glucose: with two doses
Description: The hepatocytes are isolated from Wistar rat liver having fasted for 24 h after perfusion of collagenase in the portal vein. The freshly isolated hepatocytes are sown in 6-well plates coated with collagen and containing an adhesion medium (Williams Medium). After adhesion, the medium is replaced with RPMI 1640 medium without any glucose, containing hydrocortisone (7.10^−5M) for a duration from 16 to 18 h. The next day, the glucose hepatic production test is conducted in a Krebs medium for 3 h. The basal conditions are cells incubated with only Krebs, the stimulated conditions are the cells placed in Krebs+lactate+pyruvate, the produced conditions are the cells exposed to chemical compounds in a Krebs/lactate/pyruvate medium. In the case when the compounds are dissolved in DMSO, all the conditions of the tests are met in the presence of a final concentration of 0.1% DMSO. The positive control of the test is the mercaptopicolinate known for its inhibitory action on hepatic production of glucose via the phosphoenolpyruvate carboxykinase. For short term treatments, the compounds are incubated for 3 h. For long term treatments, the compounds are incubated for 20 h at the moment when the hepatocytes are cultivated in RPMI and then added during the hepatic production test for 3 h. At the end of the 3 hours of incubation, the supernatant is recovered for measurement of glucose with a colorimetric method using glucose oxidase. The cells are lysed with a 0.1% NaOH aqueous solution in order to measure the amount of protein with the Lowry method. The results are expressed in mmols of glucose per mg of protein.

[1] = 3 h, hepatic glucose production, rat hepatocytes, 3 h incubation, compound at 50 μM
[2] = 3 h, hepatic glucose production, rat hepatocytes, 3 h incubation, compound at 100 μM
[3] = 20 h, hepatic glucose production, rat hepatocytes, 20 h incubation, compound at 50 μM
[4] = 20 h, hepatic glucose production, rat hepatocytes, 20 h incubation, compound at 100 μM

CCOC(=O)Cc1cc(S(=O)(=O)c2ccc(OC)cc2)sc1-c1ccc(Cl)c(Cl)c1 [compound 174, ethyl 2-[2-(3,4-dichlorophenyl)-5-(4-methoxyphenyl)sulfonyl-3-thienyl]acetate]
activity at 50 µM [1]: 73%
activity at 100 µM [2]: 77%

COC(=O)Cc1cc(C(=O)c2ccccc2)sc1-c1ccccc1 [compound 7, methyl 2-(5-benzoyl-2-phenyl-thiophen-3-yl)acetate]
activity at 50 µM [1]: 84%
activity at 100 µM [2]: 70%

COc1ccc(-c2sc(C(=O)c3ccc(F)cc3F)cc2CC(=O)O)cc1 [compound 65, 2-(5-(2,4-difluorobenzoyl)-2-(4-methoxyphenyl)thiophen-3-yl)acetic acid]
activity at 50 µM [1]: 93%
activity at 100 µM [2]: 66%

COc1cccc(CNC(=O)c2cc(CC(=O)OC(C)C)c(-c3ccc(Cl)cc3)s2)c1 [compound 116, isopropyl 2-(2-(4-chlorophenyl)-5-((3-methoxybenzyl)-carbamoyl)thiophen-3-yl)acetate]
activity at 50 µM [1]: 62%
activity at 100 µM [2]: 67%

O=C(O)Cc1cc(C(=O)C2CCCCC2)sc1-c1ccc(Cl)cc1 [compound 61, 2-(2-(4-chlorophenyl)-5-(cyclohexanecarbonyl)thiophen-3-yl)acetic acid]
activity at 50 µM [1]: 78%
activity at 100 µM [2]: 66%

O=C(O)Cc1cc(C(=O)CCc2ccccc2)sc1-c1ccc(Cl)cc1 [compound 63, 2-(2-(4-chlorophenyl)-5-(3-phenylpropanoyl)thiophen-3-yl) acetic acid]
inhibition of hepatic production of glucose (3 h incubation): strongest inhibitions
activity at 50 µM [1]: 56%
activity at 100 µM [2]: 28%

O=C(O)Cc1cc(C(=O)c2ccc(Cl)c(Cl)c2)sc1-c1ccc(Cl)cc1 [compound 57, 2-(2-(4-chlorophenyl)-5-(3,4-dichlorobenzoyl)thiophen-3-yl)acetic acid]
activity at 50 µM [1]: 77%
activity at 100 µM [2]: 51%

COc1ccc(C(=O)c2cc(CC(=O)OC(C)C)c(-c3ccc(Cl)cc3)s2)cc1 [compound 43, isopropyl 2-(2-(4-chlorophenyl)-5-(4-methoxybenzoyl)thiophen-3-yl)acetate]
activity at 50 µM [1]: 82%
activity at 100 µM [2]: 73%

O=C(O)Cc1cc(C(=O)c2cccc(Cl)c2)sc1-c1ccccc1 [compound 49, 2-(5-(3-chlorobenzoyl)-2-phenyl-thiophen-3-yl)acetic acid]
inhibition of hepatic production of glucose (3 h incubation): strongest inhibitions
activity at 50 µM [1]: 57%
activity at 100 µM [2]: 38%

COC(=O)Cc1cc(C(=O)c2ccc(OC)cc2)sc1-c1ccccc1 [compound 5, methyl 2-(5-(4-methoxybenzoyl)-2-phenylthiophen-3-yl)acetate]
activity at 50 µM [1]: 68%
activity at 100 µM [2]: 50%

N=C(N)NC(=O)Cc1cc(C(=O)c2ccco2)sc1-c1ccc(Cl)cc1 [compound 186, N-carbamimidoyl-2-[2-(4-chlorophenyl)-5-(furan-2-carbonyl)-3-thienyl]acetamide hydrochloride]
activity at 50 µM [1]: 69%
activity at 100 µM [2]: 60%

O=C(O)Cc1cc(C(=O)c2ccccc2)sc1-c1ccc(Cl)cc1 [compound 154, 2-[5-benzoyl-2-(4-chlorophenyl)-3-thienyl]acetic acid]
activity at 50 µM [1]: 81%
activity at 100 µM [2]: 63%

O=C(c1ccco1)c1cc(Cc2noc(=O)[nH]2)c(-c2ccc(Cl)cc2)s1 [compound 153, 3-((2-(4-chlorophenyl)-5-(furan-2-carbonyl)thiophen-3-yl)-methyl)-1,2,4-oxadiazol-5(2H)-one]
activity at 50 µM [1]: 95%
activity at 100 µM [2]: 38%

CCON=C(c1ccc(Cl)c(Cl)c1)c1cc(CC(=O)O)c(-c2ccc(Cl)cc2)s1 [compound 167, 2-[2-(4-chlorophenyl)-5-[C-(3,4-dichlorophenyl)-N-ethoxy-carbonimidoyl]-3-thienyl]acetic acid]
inhibition of hepatic production of glucose (3 h incubation): strongest inhibitions
activity at 50 µM [1]: 20%
activity at 100 µM [2]: 23%

COc1cccc(C(=O)c2cc(CC(=O)O)c(-c3ccc(Cl)cc3)s2)c1 [compound 59, 2-(2-(4-chlorophenyl)-5-(3-methoxybenzoyl)thiophen-3-yl) acetic acid]
activity at 50 µM [1]: 67%
activity at 100 µM [2]: 35%

CCOC(=O)Cc1cc(C(=O)CCc2ccccc2)sc1-c1ccc(OC)cc1 [compound 38, ethyl 2-(2-(4-methoxyphenyl)-5-(3-phenylpropanoyl)thiophen-3-yl)acetate]
activity at 50 µM [1]: 74%
activity at 100 µM [2]: 70%

CCOC(=O)Cc1cc(C(=O)CCc2ccccc2)sc1-c1ccc(Cl)cc1 [compound 17, ethyl 2-(2-(4-chlorophenyl)-5-(3-phenylpropanoyl)thiophen-3-yl)acetate]
activity at 50 µM [1]: 76%
activity at 100 µM [2]: 73%

COc1ccc(-c2sc(C(=O)CCc3ccccc3)cc2CC(=O)O)cc1 [compound 80, 2-(2-(4-methoxyphenyl)-5-(3-phenylpropanoyl)thiophen-3-yl)ace acetic acid]
activity at 50 µM [1]: 83%
activity at 100 µM [2]: 67%

O=C([O-])Cc1cc(C(=O)c2ccco2)sc1-c1ccc(Cl)cc1.[Na+] [compound 82, sodium 2-(2-(4-chlorophenyl)-5-(furan-2-carbonyl)thiophen-3-yl)acetate]
HGP % of ctrl @ 50 μM (hepatic glucose production, rat hepatocytes, 3 h incubation, compound at 50 μM): 67 % of ctrl
HGP % of ctrl @ 100 μM (hepatic glucose production, rat hepatocytes, 3 h incubation, compound at 100 μM): 26 % of ctrl

CCOC(=O)Cc1cc(C(=O)NNC(=O)c2cccc(OC)c2)sc1-c1ccc(Cl)cc1 [compound 178, ethyl 2-[2-(4-chlorophenyl)-5-[[(3-methoxybenzoyl)-amino]carbamoyl]-3-thienyl]acetate]
activity at 50 µM [1]: 92%
activity at 100 µM [2]: 72%

COC(=O)Cc1cc(C(=O)C2CCCCC2)sc1-c1ccccc1 [compound 6, methyl 2-(5-(cyclohexanecarbonyl)-2-phenylthiophen-3-yl)acetate]
activity at 50 µM [1]: 72%
activity at 100 µM [2]: 55%

COc1cccc(NC(=O)c2cc(CC(=O)OC(C)C)c(-c3ccc(Cl)cc3)s2)c1 [compound 115, isopropyl 2-(2-(4-chlorophenyl)-5-((3-methoxyphenyl)-carbamoyl)thiophen-3-yl)acetate]
activity at 50 µM [1]: 66%
activity at 100 µM [2]: 75%

COc1ccc(C(=O)c2cc(CC(=O)O)c(-c3ccc(OC)cc3)s2)cc1 [compound 45, 2-(5-(4-methoxybenzoyl)-2-(4-methoxyphenyl)thiophen-3-yl)acetic acid]
activity at 50 µM [1]: 82%
activity at 100 µM [2]: 73%

O=C(O)Cc1cc(C(=O)c2ccco2)sc1-c1ccccc1 [compound 48, 2-(5-(furan-2-carbonyl)-2-phenyl-thiophen-3-yl)acetic acid]
activity at 50 µM [1]: 91%
activity at 100 µM [2]: 73%

COc1ccc(C(=O)c2cc(C(C)C(=O)O)c(-c3ccc(Cl)cc3)s2)cc1 (stereo not drawn) [compound 127, 2-(2-(4-chlorophenyl)-5-(4-methoxybenzoyl)thiophen-3-yl)propanoic acid]
inhibition of hepatic production of glucose (3 h incubation): strongest inhibitions
activity at 50 µM [1]: 54%
activity at 100 µM [2]: 23%

COc1ccc(-c2sc(C(=O)c3ccccc3OC)cc2CC(=O)O)cc1 [compound 69, 2-(5-(2-methoxybenzoyl)-2-(4-methoxyphenyl)thiophen-3-yl)acetic acid]
activity at 50 µM [1]: 86%
activity at 100 µM [2]: 60%

COCC(C(=O)O)c1cc(C(=O)c2ccc(OC)cc2)sc1-c1ccc(Cl)cc1 (stereo not drawn) [compound 128, 2-(2-(4-chlorophenyl)-5-(4-methoxybenzoyl)thiophen-3-yl)-3-methoxypropanoic acid]
inhibition of hepatic production of glucose (20 h incubation): strongest inhibitions
activity at 50 µM [3]: 41%
activity at 100 µM [4]: 16%

CON=C(c1ccc(OC)cc1)c1cc(CC(=O)O)c(-c2ccc(Cl)cc2)s1 [compound 110, 2-(2-(4-chlorophenyl)-5-((methoxyimino)(4-methoxyphenyl)methyl)thiophen-3-yl)acetic acid]
activity at 50 µM [1]: 72%
activity at 100 µM [2]: 33%

CCOC(=O)Cc1cc(C(=O)NNC(=O)c2ccncc2)sc1-c1ccc(Cl)cc1 [compound 179, ethyl 2-[2-(4-chlorophenyl)-5-[(pyridine-4-carbonyl-amino)-carbamoyl]-3-thienyl]acetate]
activity at 50 µM [1]: 91%
activity at 100 µM [2]: 69%

CCOC(=O)Cc1cc(C(=O)c2cccc(F)c2)sc1-c1ccc(OC)cc1 [compound 26, ethyl 2-(5-(3-fluorobenzoyl)-2-(4-methoxyphenyl)thiophen-3-yl)acetate]
activity at 50 µM [1]: 86%
activity at 100 µM [2]: 71%

O=C(O)Cc1cc(C(=O)c2ccccn2)sc1-c1ccc(Cl)cc1 [compound 149, 2-(2-(4-chlorophenyl)-5-picolinoylthiophen-3-yl)acetic acid]
activity at 50 µM [3]: 47%
activity at 100 µM [4]: 13%

CCOC(=O)Cc1cc(C(=O)Cc2ccccc2)sc1-c1ccc(Cl)cc1 [compound 16, ethyl 2-(2-(4-chlorophenyl)-5-(2-phenylacetyl)thiophen-3-yl)acetate]
activity at 50 µM [1]: 69%
activity at 100 µM [2]: 63%
